Test results from US20230405003A1, “APPLICATION OF THYMIDINE DERIVATIVE IN PREPARATION OF DRUGS” (ONQUALITY PHARMACEUTICALS CHINA LTD., priority 2020, published 2023).
Read-outs that look alike come from different tables or passages of the source.

Columns and labels:
[1] = system: pain in capecitabine hand-foot syndrome rats; assay: Pain of hand-foot syndrome, mechanical sensitivity in rats (von Frey); assay type: in vivo, rat; conditions: capecitabine 4000 mg/kg hand-foot syndrome rats; thymidine derivative 3%
Experimental: According to the method of Examples 91-115, after administration of a thymidine derivative (at a concentration of 3%) and co-administration of a thymidine derivative (at a concentration of 1%) with a uridine derivative (at a concentration of 3%) to rat hand-foot syndrome models constructed from 4000 mg/kg of capecitabine for a period of time, pain analysis was performed on the rats, and the pain assessment model was mechanical sensitivity in rats (von Frey). The experimental steps were as follows: first, the rats were allowed to adapt in the room for 1 hour, then the rats were placed in an observation box with a metal mesh floor, and the mice were allowed to stay in the box for 20 minutes to adapt to the experimental platform. Next, a von Frey device was used to detect paw pain by stimulating the surface of the rat's palm with specially designed cilia to detect the mechanical sensitivity of the animal at strength of 0.4 g, 0.8 g, 1.5 g, 2.5 g, 4 g, 8 g, 10 g and 20 g (IITC Life Science, Woodland Hills, 2390 series). […] The rat movement response was considered to be a vague response, in which case the stimulation experiment was repeated.

[2] = system: hand-foot syndrome caused by capecitabine in SD rats; assay: Rat model of hand-foot syndrome caused by capecitabine, gel application; assay type: in vivo; conditions: Rattus norvegicus, topical, 960 h, rats, capecitabine 4000 mg/kg once daily, 40 days; for inhibition in vivo at 1 %: gel 1 wt%; for inhibition in vivo at 5 %: gel 5 wt%; for inhibition in vivo at 3 %: gel 3 wt%
Method in brief: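 Female SD rats (~200 g, n=10/group) were given daily oral capecitabine (castor oil/ethanol 1:1, diluted with PBS). Thymidine derivative gel, alone or combined with uridine derivative, or blank gel was applied to both hind paws for ~4 h daily until blank controls developed hand-foot syndrome. Control rate was blank incidence minus treated incidence; paws were also examined by HE and IHC.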

HaCaT cells = assay: Relief of 5-FU proliferative toxicity to HaCaT cells (CCK-8 cell survival); assay type: cell-based; conditions: 5-Fu 20 μM, HaCaT cells
Method in brief: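 HaCaT keratinocytes (5000–10000/well) cultured 24 h, then exposed 48 h to 5-FU alone or with thymidine derivative, or thymidine plus uridine derivative mix, versus solvent-matched blanks. Survival by CCK-8; value is % increase in survival over 5-FU alone, t-test.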

[3] = read-out: Control Rate Forepaws
[4] = read-out: Control Rate Hindpaws

Compound: Cc1ccc(C(=O)c2ccc(CC(=O)O[C@H]3C[C@H](n4cc(C)c(=O)[nH]c4=O)O[C@@H]3CO)n2C)cc1 [T45]
- pain in rats (von Frey mechanical sensitivity) [1]: could significantly improve pain in rats
- inhibition in vivo at 1 % [2, 3]: 25%
- inhibition in vivo at 1 % [2, 4]: 37.5%
- inhibition in vivo at 5 % [2, 3]: 55.6%
- inhibition in vivo at 5 % [2, 4]: 77.8%
- Cell Survival Rate (increased percentage of cell survival compared with the Group of 5-FU) (HaCaT cells; selected compound final concentration 0.8 μM): 34%-41%
- Cell Survival Rate (increased percentage of cell survival compared with the Group of 5-FU) (HaCaT cells; selected compound final concentration 1.6 μM): 39%-46%
- Cell Survival Rate (increased percentage of cell survival compared with the Group of 5-FU) (HaCaT cells; selected compound final concentration 3.13 μM): 63%-70%
- Cell Survival Rate (increased percentage of cell survival compared with the Group of 5-FU) (HaCaT cells; selected compound final concentration 6.25 μM): 59%-67%
- Cell Survival Rate (increased percentage of cell survival compared with the Group of 5-FU) (HaCaT cells; selected compound final concentration 12.5 μM): 48%-55%
- Cell Survival Rate (increased percentage of cell survival compared with the Group of 5-FU) (HaCaT cells; selected compound final concentration 25 μM): 44%-51%
- Cell Survival Rate (increased percentage of cell survival compared with the Group of 5-FU) (HaCaT cells; selected compound final concentration 50 μM): 39%-46%

Compound: Cc1cn([C@H]2C[C@H](OC(=O)C(C)c3cccc(C(=O)c4ccccc4)c3)[C@@H](CO)O2)c(=O)[nH]c1=O (stereo partly shown) [T50]
- pain in rats (von Frey mechanical sensitivity) [1]: could significantly improve pain in rats
- inhibition in vivo at 3 % [2, 3]: 71.4%
- inhibition in vivo at 3 % [2, 4]: 57.1%
- Cell Survival Rate (increased percentage of cell survival compared with the Group of 5-FU) (HaCaT cells; selected compound final concentration 2 μM): 13%-20%
- Cell Survival Rate (increased percentage of cell survival compared with the Group of 5-FU) (HaCaT cells; selected compound final concentration 4 μM): 26%-33%
- Cell Survival Rate (increased percentage of cell survival compared with the Group of 5-FU) (HaCaT cells; selected compound final concentration 8 μM): 36%-43%
- Cell Survival Rate (increased percentage of cell survival compared with the Group of 5-FU) (HaCaT cells; selected compound final concentration 16 μM): 47%-53%
- Cell Survival Rate (increased percentage of cell survival compared with the Group of 5-FU) (HaCaT cells; selected compound final concentration 32 μM): 68%-76%
- Cell Survival Rate (increased percentage of cell survival compared with the Group of 5-FU) (HaCaT cells; selected compound final concentration 62.5 μM): 74%-82%
- Cell Survival Rate (increased percentage of cell survival compared with the Group of 5-FU) (HaCaT cells; selected compound final concentration 125 μM): 75%-85%
- Cell Survival Rate (increased percentage of cell survival compared with the Group of 5-FU) (HaCaT cells; selected compound final concentration 250 μM): 75%-82%
- Cell Survival Rate (increased percentage of cell survival compared with the Group of 5-FU) (HaCaT cells; selected compound final concentration 500 μM): 65%-73%
- Cell Survival Rate (increased percentage of cell survival compared with the Group of 5-FU) (HaCaT cells; selected compound final concentration 1000 μM): 58%-65%
